# Read-outs that look alike come from different tables or passages of the source.
# Columns and labels:
# [1] = set-up: method as in PMID 24838869; details: dissociation of [Sc(DOTA)]; cited from earlier work
# [2] = cited from earlier work
# [3] = Fluoride binding of [Sc(PC2AM^nBu)]^+ (ternary complex stability), 19F NMR titration; format: physicochemical; details: for log K ScLF: stability constant of the ternary fluoride complex, 19F NMR, pH = 5.2, I = 0.15 M NaCl, 25 °C; for K= [Sc(L)F]/[Sc(L)]*[F^-] / log K: titration point: complex 0.0050 M, pH 5.20, I = 0.15 M NaCl, 298 K
# From the text: Sc(III) is a typical “hard” cation, forming very stable complexes with fluoride anion.^[ [51], [52] ^] […] The formation of the ternary [Sc(PC2AM^nBu)(F)] complex can be followed by […], as two sets of signals (Δδ ∼ 20 Hz) indicate a slow exchange regime on the […] time scale (Figure S16). Measuring the intensities of the free and bound fluoride signals, the stability constant (Eqn. 6) of the [Sc(PC2AM^nBu)(F)] complex (Eqn. 5) can be calculated (Table S1).
# (5) [Sc(PC2AM^nBu)]^++F^−⇌[Sc(PC2AM^nBu)(F)] (6) KScLF=ScPC2AM^nBuF/[ScPC2AM^nBu^+]F^−
# Table S1. Summary of data used for the calculation of the stability constant, log K[Sc(PC2AM^nBu)(F)] by titration of 0.005M [Sc(PC2AM^nBu)]^+ parent complex with different amounts of F^- (0.005 - 0.01 M concentration range) followed by 376.4 MHz ^19F NMR (I = 0.15 M NaCl, c Sc(PC2AM^nBu) = 5 mM, pH=5.20, T= 298 K).
# [4] = Fluoride exchange kinetics, 19F NMR selective magnetization transfer; format: physicochemical; details: complex 5 mM, cF = 10 mM, 14% uncertainty; for k obs ^AB (fluoride exchange, complex site A to free F^− site B): 298 K
# From the text: Considering ^18F‐labeling and PET application of the [Sc(L)(F)]‐type mixed complexes, one has to check the inertness of the mixed complex against F‐exchange:
# (7) [Sc(PC2AM^nBu)F]+∗F^−⇌[Sc(PC2AM^nBu)∗F]+F^− where * is used to indicate typographically the exchanging anion.
# The ^19F NMR signal of the mixed complex is somewhat broadened (ν ½ = 150 Hz) due to the relaxation effect of the quadrupole ^45Sc (I = 7/2) nuclei, while the free fluoride is narrow (ν ½ = 4.5 Hz), indicating the absence of chemical exchange on the T 2‐time scale (Figure S24). […] (site A) and free F^− (site B) with k obs ^AB value of 0.6 s^−1 (14% uncertainty), indicating remarkable inertness of the monodentate fluoride (Figure S25). Very recently, 3–4 orders of magnitude larger fluoride exchange rate constants have been published for two Y(III) complexes formed with open‐chain ligands, [Y(EGTA)(F)]^2− and [Y(OBETA)(H2O)(F)]^2−.^[ [56] ^] […] At the same time, the k obs value obtained for the [Sc(OPC2A)(F)] complex (k obs = 16.5 s^−1) is lower by an order of magnitude than that of [Yb(DTMA)(F)]^2+ [ [45] ^] which is likely to be rationalized by the more rigid environment around the M(III)‐F entity.
# Figure S25. Selective magnetization transfer (MT) experiment (intensity vs. delay time) curves for [Sc(PC2AAM^nBu)(F)] (c[Sc(PC2AAMnBu)(F)] = 5 mM, cF = 10 mM, pH = 5.50, 298 K). The symbols show the measured intensities: red triangle [Sc(PC2AAM^nBu)(F)] (site A); blue square, free F^- (site B), the curves represent the fitted data (k^obsBA = 1.2 s^-1 (14% uncertainty), k^obsAB = 0.60 s^-1 (14% uncertainty), T1,A= 0.211 s; T1,B = 1.28 s (fixed)).
structure (smiles),measurement,setting,value
O=C(O)CN1CCN(CC(=O)O)CCN(CC(=O)O)CCN(CC(=O)O)CC1 [DOTA],k 0 (spontaneous dissociation),[1],6e-06 s⁻¹
same,k 1 (acid‐assisted dissociation),[1],4.3e-06 M⁻¹ s⁻¹
F.O=C([O-])CN(CCN(CC(=O)[O-])CC(=O)O)CC(=O)[O-].[Al+3] [[Al(EDTA)(F)]^2−],k obs (fluoride exchange),"[2]; estimate, no magnetization effect in MT experiment",greater than or equal to 0.2 s^−1
O=C([O-])CN1CCOCCN(CC(=O)[O-])Cc2cccc(n2)C1.[F-].[Sc+3] [[Sc(OPC2A)(F)]],k obs (fluoride exchange),[2]; literature value,16.5 s⁻¹
CCCCNC(=O)CN1CCN(CC(=O)[O-])Cc2cccc(n2)CN(CC(=O)[O-])CC1.[F-].[Sc+3] [[Sc(PC2AM^nBu)(F)]],log K ScLF,[3],2.5(2)
same,log K ScLF,[3]; listed as [Sc(PC2AMnBu)(F)],2.5
same,K= [Sc(L)F]/[Sc(L)]*[F^-],[3]; F^- 0.0050 M,356.65
same,log K,[3]; F^- 0.0050 M,2.55
same,K= [Sc(L)F]/[Sc(L)]*[F^-],[3]; F^- 0.0060 M,508.89
same,log K,[3]; F^- 0.0060 M,2.71
same,K= [Sc(L)F]/[Sc(L)]*[F^-],[3]; F^- 0.0070 M,342.86
same,log K,[3]; F^- 0.0070 M,2.54
same,K= [Sc(L)F]/[Sc(L)]*[F^-],[3]; F^- 0.0080 M,222.09
same,log K,[3]; F^- 0.0080 M,2.35
same,K= [Sc(L)F]/[Sc(L)]*[F^-],[3]; F^- 0.0100 M,150.79
same,log K,[3]; F^- 0.0100 M,2.18
same,"k obs ^AB (fluoride exchange, complex site A to free F^− site B)",[4],0.6 s⁻¹
same,"k obs ^AB (fluoride exchange, complex site A to free F^− site B)",[4]; listed as [Sc(PC2AAM^nBu)(F)],0.60 s⁻¹
same,"k^obsBA (fluoride exchange, free F^- site B to complex site A)","[4]; pH = 5.50, 298 K",1.2 s⁻¹
CNC(=O)CN1CCN(CC(=O)NC)CCN(CC(=O)NC)CCN(CC(=O)NC)CC1.[F-].[Yb+3] [[Yb(DTMA)(F)]^2+],k obs (fluoride exchange),[2]; literature value,216 s⁻¹
